Assay: Renal clearance study in unanesthetized dogs: effective renal plasma flow (PAH clearance) and glomerular filtration rate (creatinine clearance)
Assay type: in vivo
Details: alone
Procedure: A modification of the renal function protocol, described in the prior art, was used for renal clearance studies in adult, trained, unanesthetized, fasted, female mongrel dogs, lightly restrained on their backs on a cradle-like board constructed specifically for this purpose. […] All dogs were given an oral water load of 500 ml of tap water thirty minutes prior to initiation of the study. […] Suitable plasma levels of creatinine and p-aminohippuric acid were obtained by a thirty minute infusion of this solution prior to starting of the initial urine collection (U₁) In addition, 1.5 ml/kg of a 1% creatinine solution in phosphate buffer was injected intravenously fifteen minutes prior to collection of U₁. Replicate urine collections were obtained at ten minute intervals throughout the experiment. The bladder was emptied by an indwelling catheter and complete urine collections were assured by rinsing the bladder with 10 mls of warm water at the end of each collection interval. This procedure was followed by an air washout. Venous blood samples were drawn from an indwelling catheter at the mid-point of each clearance period. Urine volumes were recorded at the time of collection. Plasma and urine samples were stored frozen, after collection, until analyzed. Analyses for creatinine and p-aminohippuric acid were made, by colorimetry, using standard AutoAnalyzer methodologies. These analyses were made simultaneously on each sample. Peak intensities were identified electronically, recorded on "on-line" teletype, stored and subsequently analyzed mathematically by time-shared computer against appropriate standards. Data were computed from linear least square regression lines, and quality control standards were analyzed simultaneously to evaluate system reproducibility and reliability. The bladder was emptied upon beginning the study and three control clearances (U₁-U₃, Phase 1) were obtained. […] Post-drug clearance C₄-C₆, C₇-C₉, C₁₀-C₁₂ (Phases II, III and IV) were collected immediately, with no delay between C₃ and C₄. […] Four dogs were used for each treatment. All compounds were weighed as free base content.

## CS(=O)(=O)O.Oc1ccc(C2CNCCc3c2cc(O)c(O)c3Cl)cc1 (centres unmarked) [Fenoldopam, 6-Chloro-7,8-dihydroxy-1-(4-hydroxyphenyl)-2,3,4,5-tetrahydro-1H-3-benzazepine methyl sulfonate]
Fenoldopam 2.5 mg/kg orally
  ERPF ( % from control): 34 ± 5 % from control
  GFR ( % from control): -2 ± 2 % from control
Fenoldopam 5.0 mg/kg orally
  ERPF ( % from control): 47 ± 16 % from control
  GFR ( % from control): 6 ± 5 % from control
Fenoldopam 10 mg/kg orally
  ERPF ( % from control): 30 ± 2 % from control
  GFR ( % from control): -1 ± 2 % from control
Fenoldopam 20 mg/kg orally
  ERPF ( % from control): 44 ± 15 % from control
  GFR ( % from control): 1 ± 3 % from control

Source: patent publication EP0365134A1, “Synergistic compositions of renal dopaminergic agent and angiotensin converting enzyme inhibitors” (priority 1988, dated 1990)
